Here are results for 25 compounds from PubChem BioAssay AID330 (DTP/NCI, 2004).

Molecules are shown by their SMILES. Inconclusive results and toxic doses are left out.

The test deals with P388 leukemia ip, CD2F1 mice, survival T/C. Put plainly: NCI In Vivo Anticancer Drug Screen. Data for tumor model P388 Leukemia (intraperitoneal) in CD2F1 (CDF1) mice. The following applies: endpoint: median survival time, higher = longer survival. The essentials: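 Mice carrying the transplanted tumor received test compound or vehicle. Survival was recorded in each group, and the value is the treated-group measurement divided by that of the vehicle-treated control group.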

[1] abbreviates: dose: 50.0 mg/kg/injection, schedule: Q04DX002 (ip), vehicle: saline with Tween-80.
[2] abbreviates: dose: 100.0 mg/kg/injection, schedule: Q04DX002 (ip), vehicle: saline with Tween-80.
Setting [3] is: dose: 200.0 mg/kg/injection, schedule: Q04DX002 (ip), vehicle: saline with Tween-80.
The mark [4] stands for this setting: dose: 50.0 mg/kg/injection, schedule: Q01DX009 (ip), vehicle: saline.
[5] abbreviates: dose: 50.0 mg/kg/injection, schedule: Q01DX005 (ip), vehicle: Klucel (hydroxypropylcellulose) (HPC).
[6] abbreviates: dose: 100.0 mg/kg/injection, schedule: Q01DX005 (ip), vehicle: Klucel (hydroxypropylcellulose) (HPC).
Where [7] appears, read: dose: 200.0 mg/kg/injection, schedule: Q01DX005 (ip), vehicle: Klucel (hydroxypropylcellulose) (HPC).
The mark [8] stands for this setting: dose: 60.0 mg/kg/injection, schedule: Q01DX005 (ip), vehicle: saline.
The mark [9] stands for this setting: dose: 120.0 mg/kg/injection, schedule: Q01DX005 (ip), vehicle: saline.
Where [10] appears, read: dose: 60.0 mg/kg/injection, schedule: Q01DX005 (ip), vehicle: saline with Tween-80.
[11] abbreviates: dose: 120.0 mg/kg/injection, schedule: Q01DX005 (ip), vehicle: saline with Tween-80.
Setting [12] is: dose: 240.0 mg/kg/injection, schedule: Q01DX005 (ip), vehicle: saline with Tween-80.
Setting [13] is: dose: 100.0 mg/kg/injection, schedule: Q01DX001 (ip), vehicle: Klucel (hydroxypropylcellulose) (HPC).
The mark [14] stands for this setting: dose: 200.0 mg/kg/injection, schedule: Q01DX001 (ip), vehicle: Klucel (hydroxypropylcellulose) (HPC).
Setting [15] is: dose: 400.0 mg/kg/injection, schedule: Q01DX001 (ip), vehicle: Klucel (hydroxypropylcellulose) (HPC).

Turning to `Clc1ccc2c(ccc3cccnc32)n1`, the T/C was 100 % of control under setting [1], 97 % of control under setting [2] and 94 % of control under setting [3].

Turning to `Cc1csc2nc(-c3ccco3)nn12`, the T/C was 107 % of control (dose: 60.0 mg/kg/injection, schedule: Q01DX005 (ip), vehicle: Klucel (hydroxypropylcellulose) (HPC)) and 107 % of control (dose: 120.0 mg/kg/injection, schedule: Q01DX005 (ip), vehicle: Klucel (hydroxypropylcellulose) (HPC)).

Take `CN=C(c1ccc(NC(=O)c2ccc(C(=O)Nc3ccc(C(=NC)N(C)C4CCCCC4)cc3)cc2)cc1)N(C)C1CCCCC1`: the T/C was 104 % of control (dose: 0.78 mg/kg/injection, schedule: Q01DX005 (ip), vehicle: Klucel (hydroxypropylcellulose) (HPC)); 101 % of control (dose: 1.56 mg/kg/injection, schedule: Q01DX005 (ip), vehicle: Klucel (hydroxypropylcellulose) (HPC)); 104 % of control (dose: 3.12 mg/kg/injection, schedule: Q01DX005 (ip), vehicle: Klucel (hydroxypropylcellulose) (HPC)).

For `CN=C(NC)c1ccc(NC(=O)c2ccc(C(=O)Nc3ccc(C(=NC)NC)c(OC)c3)c(Cl)c2)cc1OC`, the T/C runs as follows: (dose: 0.78 mg/kg/injection, schedule: Q01DX005 (ip), vehicle: saline with Tween-80) 101 % of control; (dose: 1.56 mg/kg/injection, schedule: Q01DX005 (ip), vehicle: saline with Tween-80) 104 % of control; (dose: 3.13 mg/kg/injection, schedule: Q01DX005 (ip), vehicle: saline with Tween-80) 105 % of control.

Regarding `Cc1ccc(CC(=O)O)c2c1C(=O)CC2`, the T/C is 92 % of control (dose: 12.5 mg/kg/injection, schedule: Q01DX009 (ip), vehicle: distilled water + Tween-80); 90 % of control (dose: 25.0 mg/kg/injection, schedule: Q01DX009 (ip), vehicle: distilled water + Tween-80); 90 % of control (dose: 50.0 mg/kg/injection, schedule: Q01DX009 (ip), vehicle: distilled water + Tween-80); 90 % of control (dose: 100.0 mg/kg/injection, schedule: Q01DX009 (ip), vehicle: distilled water + Tween-80); 90 % of control (dose: 200.0 mg/kg/injection, schedule: Q01DX009 (ip), vehicle: distilled water + Tween-80).

As for `Cc1cc(=O)[nH]c(/N=C(/N)N(C)C)n1`, the T/C is 101 % of control under setting [4]; 98 % of control (dose: 100.0 mg/kg/injection, schedule: Q01DX009 (ip), vehicle: saline); 108 % of control (dose: 200.0 mg/kg/injection, schedule: Q01DX009 (ip), vehicle: saline).

On to `S=C(Nc1ccccc1)P(c1ccccc1)c1ccccc1.[Ir]`, for which the T/C was 90 % of control under setting [5], 99 % of control under setting [6] and 97 % of control under setting [7].

Consider `CC1CCCN(CCSSCCN2CCCC(C)C2)C1` (centres undefined), for which the T/C was 109 % of control (dose: 12.5 mg/kg/injection, schedule: Q01DX009 (ip), vehicle: saline); 113 % of control (dose: 25.0 mg/kg/injection, schedule: Q01DX009 (ip), vehicle: saline); 113 % of control under setting [4].

Consider `CN=C(N)N/N=C(/C)c1ccc2c(c1)Cc1cc(I)ccc1-2`, for which the T/C by setting is: (dose: 25.0 mg/kg/injection, schedule: Q04DX002 (ip), vehicle: saline with Tween-80) 106 % of control; under setting [1], 100 % of control; under setting [2], 107 % of control.

In the case of `COC(=O)C1(C2(C(=O)OC)NC(C)=C(c3ccccc3)C(=O)O2)NC(C)=C(c2ccccc2)C(=O)O1` (centres undefined), the T/C was 97 % of control (dose: 50.0 mg/kg/injection, schedule: Q01DX005 (ip), vehicle: saline with Tween-80); 100 % of control (dose: 100.0 mg/kg/injection, schedule: Q01DX005 (ip), vehicle: saline with Tween-80); 91 % of control (dose: 200.0 mg/kg/injection, schedule: Q01DX005 (ip), vehicle: saline with Tween-80).

In the case of `O=C1c2c3c(c4c(c2C(=O)c2c5c(c6c(c21)CCC6)CCC5)CCC4)CCC3`, the T/C by setting is: (dose: 10.0 mg/kg/injection, schedule: Q01DX009 (ip), vehicle: saline with Tween-80) 95 % of control; (dose: 20.0 mg/kg/injection, schedule: Q01DX009 (ip), vehicle: saline with Tween-80) 96 % of control; (dose: 40.0 mg/kg/injection, schedule: Q01DX009 (ip), vehicle: saline with Tween-80) 99 % of control.

As to `COc1nc(N)c(NC(C)=O)c(=O)n1C`, the T/C is, setting by setting: under setting [8], 96 % of control; under setting [9], 96 % of control; (dose: 240.0 mg/kg/injection, schedule: Q01DX005 (ip), vehicle: saline) 93 % of control.

Turning to `Nc1ccc(S(=O)(=O)Nc2cccc3[nH]c(=O)oc23)cc1`, the T/C by setting is: (dose: 50.0 mg/kg/injection, schedule: Q04DX002 (ip), vehicle: Klucel (hydroxypropylcellulose) (HPC)) 101 % of control; (dose: 100.0 mg/kg/injection, schedule: Q04DX002 (ip), vehicle: Klucel (hydroxypropylcellulose) (HPC)) 99 % of control; (dose: 200.0 mg/kg/injection, schedule: Q04DX002 (ip), vehicle: Klucel (hydroxypropylcellulose) (HPC)) 100 % of control.

Take `CCOC(=O)C(CCc1ccccn1)C(C)=O` (centres undefined): the T/C is 94 % of control under setting [10], 98 % of control under setting [11] and 98 % of control under setting [12].

Regarding `C/C=C(\C)C(=O)OC1CC(OC(=O)/C(C)=C/C)C2(C)C3C(=O)C=C(C)C2C3C1(C)C` (centres undefined), the T/C is, setting by setting: (dose: 12.5 mg/kg/injection, schedule: Q01DX009 (ip), vehicle: Klucel (hydroxypropylcellulose) (HPC)) 90 % of control; (dose: 25.0 mg/kg/injection, schedule: Q01DX009 (ip), vehicle: Klucel (hydroxypropylcellulose) (HPC)) 96 % of control; (dose: 50.0 mg/kg/injection, schedule: Q01DX009 (ip), vehicle: Klucel (hydroxypropylcellulose) (HPC)) 96 % of control; (dose: 100.0 mg/kg/injection, schedule: Q01DX009 (ip), vehicle: Klucel (hydroxypropylcellulose) (HPC)) 100 % of control.

As to `CN(C)c1ccc(C2(C(=O)O)CCCC(C)(C)C2)cc1` (centres undefined), the T/C is, setting by setting: under setting [13], 95 % of control; under setting [14], 95 % of control; under setting [15], 92 % of control.

As to `Clc1cccc(O[Si]23OCCN(CCO2)CCO3)c1`, the T/C is, setting by setting: under setting [5], 109 % of control; under setting [6], 106 % of control; under setting [7], 102 % of control.

Take `CCOC(=O)c1c(C2OC(CO)C(O)C2O)cn(C)c1-c1ccccc1` (centres undefined): the T/C was 103 % of control (dose: 50.0 mg/kg/injection, schedule: Q01DX001 (ip), vehicle: Klucel (hydroxypropylcellulose) (HPC)); 98 % of control under setting [13]; 98 % of control under setting [14].

As to `CC(C)(C)c1ccc(C(=O)N2CCOC23CCCCC3)cc1`, the T/C was 105 % of control under setting [5], 96 % of control under setting [6] and 96 % of control under setting [7].

Turning to `CC(C)(C)c1cc(-c2cc(C(C)(C)C)nc(N)n2)nc(N)n1`, the T/C is 87 % of control under setting [8] and 105 % of control under setting [9].

For `NC(=S)c1cccc(C2Nc3ccccc3S2)c1` (centres undefined), the T/C by setting is: under setting [2], 94 % of control; under setting [3], 95 % of control; (dose: 400.0 mg/kg/injection, schedule: Q04DX002 (ip), vehicle: saline with Tween-80) 96 % of control.

In the case of `C[n+]1c2ccccc2cc2ccccc21`, the T/C (dose: 25.0 mg/kg/injection, schedule: Q04DX003 (ip), vehicle: saline with Tween-80) is 86 % of control.

Take `COC(=O)CC1=NNC(=O)C1`: the T/C is 93 % of control under setting [13], 99 % of control under setting [14] and 100 % of control under setting [15].

In the case of `O=C(OCCO)c1ccccc1O`, the T/C is 95 % of control (dose: 100.0 mg/kg/injection, schedule: Q04DX003 (ip), vehicle: saline with Tween-80); 104 % of control (dose: 200.0 mg/kg/injection, schedule: Q04DX003 (ip), vehicle: saline with Tween-80); 95 % of control (dose: 400.0 mg/kg/injection, schedule: Q04DX003 (ip), vehicle: saline with Tween-80).

Turning to `CSC(SC)c1cc(C)no1`, the T/C reads like this: under setting [10], 107 % of control; under setting [11], 101 % of control; under setting [12], 103 % of control.
